Results published in patent US10925854B2, “Methods and compositions for preventing or treating fatty liver, protecting liver function or ameliorating liver diseases caused by fatty liver or other associated disorders” (SINEW PHARMA INC., priority 2015, dated 2021).

These molecules were tested on HepG2 fatty liver cells (induced with oleic acid) (assay: Reduction of TG content in oleic acid-induced HepG2 fatty liver cells). Conditions: Homo sapiens, 72 h; tested substances 1.0 uM, fatty liver cells from HepG2; read-out: TG reduction rate.
Format: cell-based, human
Method: The activity of the various compounds of the present invention in reduction of fat content was analyzed by using human hepatoma cell line Hep G2.
HepG2 cell lines (15×10^6 cells) were cultured in DMEM culture No. B, incubated in an incubator with 5% CO2 at 37° C. for 24 hours, cultured in DMEM culture No. C (serum-free medium) for 24 hours, and finally cultured in DMEM culture No. D (containing oleate/albumin complex) for another 48 hours to induce HepG2 cell lines to form fatty liver cells.
HepG2 cell lines were divided into six groups, including: (1) Blank: no treatment; (2) DMSO group: cells from Blank were treated with dimethyl sulfoxide (DMSO); (3) Control: induction with oleic acid to form fatty liver cells; (4) Vehicle group: fatty liver cells formed by induction with oleic acid were treated with DMSO; (5) Positive control: fatty liver cells were treated with silymarin; and (6) Test Group: fatty liver cells were treated with various compounds of the present invention.
After incubation for 72 hours, the treated cells from each group were successively washed twice with PBS, and then incubated with 0.5 ml of trypsin/EDTA for 3 minutes. Afterwards, the cells were scraped with 2 ml of PBS and then transferred to the centrifuge tube to be shattered by ultrasonic. 20 μl of the cell extracts was taken to determine the content of protein. TG determination was performed using commercially available combination of agents (Randox). The TG content obtained above was divided by the protein content to obtain a ratio, representing a relative TG content in the cells.
The equation for calculating reduction rate (%) of TG was as follows: [1−(TG content of Test Group−TG content of Blank)/(TG content of Oleic acid induction Group−TG content of Blank)]×100%.

Row | Molecule | inhibition at 1 µM
1 | C=CC(=C)CCC=C(C)C [β-myrcene] | 34 ± 11.2%
2 | O=C(O)/C=C/c1ccccc1 [trans-Cinnamic Acid] | 15.8 ± 0.82%
3 | O=c1c(-c2ccc(O)cc2)coc2cc(O)ccc12 [daidzein] | 42.3 ± 5.34%
4 | O=c1c(O)c(-c2ccc(O)cc2)oc2cc(O)cc(O)c12 [kaempferol] | 36.5 ± 4.78%
5 | COc1ccc([C@@H]2CC(=O)c3c(O)cc(O[C@@H]4O[C@H](CO)[C@@H](O)[C@H](O)[C@H]4O[C@@H]4O[C@@H](C)[C@H](O)[C@@H](O)[C@H]4O)cc3O2)cc1 [poncirin] | 38.1 ± 7.22%
6 | OC[C@@H](O)[C@H](O)[C@@H](O)CO [xylitol] | 7.36 ± 6.34%
7 | CC(C)[C@@H](C)/C=C/[C@@H](C)[C@H]1CC[C@H]2C3=CC=C4C[C@@H](O)CC[C@]4(C)[C@H]3CC[C@]12C [ergosterol] | 34.2 ± 3.69%
8 | O=C(O)[C@H]1O[C@@H](Oc2cc3oc(-c4ccccc4)cc(=O)c3c(O)c2O)[C@H](O)[C@@H](O)[C@@H]1O [baicalin] | 9.21 ± 6.21%
9 | O=C(CCc1ccc(O)cc1)c1c(O)cc(O)cc1O[C@@H]1O[C@H](CO)[C@@H](O)[C@H](O)[C@H]1O [phloridzin] | 42.4 ± 6.05%
10 | C=C[C@H]1[C@H](O[C@@H]2O[C@H](CO)[C@@H](O)[C@H](O)[C@H]2O)OC=C2C(=O)OCC[C@]21O [swrtiamarin, swertiamarin] | 6.72 ± 11%
11 | O=c1ccc2ccc(O)cc2o1 [umbelliferone] | 17.4 ± 2.57%
12 | O=c1cc(-c2ccc(O)cc2)oc2cc(O)c([C@@H]3O[C@H](CO)[C@@H](O)[C@H](O)[C@H]3O)c(O)c12 [isovitexin] | 35.9 ± 3.35%
13 | O=c1c(O[C@@H]2O[C@H](CO)[C@H](O)[C@H](O)[C@H]2O)c(-c2ccc(O)c(O)c2)oc2cc(O)cc(O)c12 [hyperoside] | 30.5 ± 2.8%
14 | COc1cc(C2Oc3cc([C@H]4Oc5cc(O)cc(O)c5C(=O)[C@@H]4O)ccc3OC2CO)ccc1O (stereo partly drawn) [silybin] | 30.3 ± 3.24%
15 | O=c1cc(-c2ccccc2)oc2cc(O)c(O)c(O)c12 [baicalein] | 7.09 ± 10.9%
16 | CC/C=C\C/C=C\C/C=C\C/C=C\C/C=C\CCCC(=O)O [eicosapentaenoic acid (EPA), eicosapentaenoic acid] | 26.1 ± 6.14%
17 | C/C=C/C=C/C(=O)O [sorbic acid] | 2.03 ± 1.96%

Row | Molecule | inhibition at 1 µM
18 | C[C@@H]1O[C@@H](O[C@H]2[C@H](Oc3cc(O)c4c(c3)O[C@H](c3ccc(O)cc3)CC4=O)O[C@H](CO)[C@@H](O)[C@@H]2O)[C@H](O)[C@H](O)[C@H]1O [naringin] | 12.7 ± 3.72%
19 | CCCCCCCCCCCCCC(=O)OCC [myristic acid ethyl ester] | 28.9 ± 3.91%
20 | CCCCCCCCCCCCOS(=O)(=O)[O-].[Na+] [sodium lauryl sulfate] | 38.7 ± 4.65%
21 | O=C1c2c(O)cc(O)cc2O[C@H](c2ccc(O)c(O)c2)[C@H]1O [(+)-taxifolin] | 17.9 ± 8.35%
22 | O=c1cc(-c2ccc(O)c(O)c2)oc2cc(O)cc(O)c12 [luteolin] | 6.95 ± 15.2%
23 | O=c1c(O)c(-c2ccccc2)oc2cc(O)cc(O)c12 [galangin] | 28.1 ± 8.62%
24 | OC[C@@H](O)[C@@H](O)[C@H](O)[C@@H](O)CO [sorbitol] | 20.1 ± 2.57%
25 | COc1ccc(-c2cc(=O)c3c(O)cc(O[C@@H]4O[C@H](CO[C@@H]5O[C@@H](C)[C@H](O)[C@@H](O)[C@H]5O)[C@@H](O)[C@H](O)[C@H]4O)cc3o2)cc1O [diosmin] | 11.9 ± 3.73%
26 | COc1ccc(-c2coc3cc(O)ccc3c2=O)cc1 [formononetin] | 29.6 ± 1.44%
27 | C[C@H]1[C@H](C)CC[C@]2(C(=O)O)CC[C@]3(C)C(=CC[C@@H]4[C@@]5(C)CC[C@H](O)C(C)(C)[C@@H]5CC[C@]43C)[C@H]12 [ursolic Acid] | 35.9 ± 8.92%
28 | COc1ccc(-c2cc(=O)c3c(OC)c(OC)c(OC)cc3o2)cc1OC [sinensetin] | 37 ± 4.84%
29 | O=C(O)CC(O)(CC(=O)O)C(=O)O [citric acid] | 2.55 ± 4.43%
30 | CC1(C)[C@@H](O[C@H]2O[C@H](C(=O)O)[C@@H](O)[C@H](O)[C@H]2O[C@@H]2O[C@H](C(=O)O)[C@@H](O)[C@H](O)[C@H]2O)CC[C@]2(C)[C@H]3C(=O)C=C4[C@@H]5C[C@@](C)(C(=O)O)CC[C@]5(C)CC[C@@]4(C)[C@]3(C)CC[C@@H]12 [glycyrrhizin] | 10.6 ± 7.4%
31 | O=c1c(O)c(-c2ccc(O)cc2O)oc2cc(O)cc(O)c12 [morin] | 25.8 ± 10.7%
32 | OCC(O)CO [glycerrin, glycerin] | 16.2 ± 4.25%
33 | CC(Cc1ccc(O)c(O)c1)C(C)Cc1ccc(O)c(O)c1 (stereo not drawn) [nordihydroguaiaretic acid] | 15.9 ± 2.3%

Same assay, conditions: Homo sapiens, HepG2, 72 h, read-out: TG reduction rate

Row | Molecule | inhibition at 1 µM
34 | O=C(O)c1ccc(O)c(O)c1 [protocatechuic acid] | 18.6 ± 7.6%
35 | C[C@@H]1O[C@@H](Oc2c(-c3ccc(O)c(O)c3)oc3cc(O)cc(O)c3c2=O)[C@H](O)[C@H](O)[C@H]1O [quercitrin] | 9.15 ± 9.24%

Same assay, conditions: tested substances 1.0 uM, fatty liver cells from HepG2

Row | Molecule | TG reduction rate
36 | (−)-epicatechin-3-gallate | 32.7 ± 4.33%
